Patent publication US7872018B2, “Compounds and methods for kinase modulation, and indications therefor” (Plexxikon, Inc., priority 2006, dated 2011)

Experiments:
Jnk1 = Jnk1 (Homo sapiens, UniProt P45983); experiment: Jnk1 kinase activity assay; format: biochemical; conditions: under the test conditions employed; read-out: IC50 toward kinase Jnk1
B-Raf = B-Raf (Homo sapiens, UniProt P15056); experiment: B-Raf kinase activity assay; format: biochemical; conditions: under the test conditions employed; read-out: IC50 toward kinase B-Raf
B-Raf V600E/T529I = B-Raf V600E/T529I (Homo sapiens, UniProt P15056, T529I/V600E); experiment: B-Raf V600E/T529I kinase activity assay; format: biochemical; conditions: under the test conditions employed; read-out: IC50 toward kinase B-Raf V600E/T529I
Flt1 = Flt1 (Homo sapiens, UniProt P17948); experiment: Flt1 kinase activity assay; format: biochemical; conditions: under the test conditions employed; read-out: IC50 toward kinase Flt1
Fms = molecular target: T1, Fms (Homo sapiens, UniProt P07333); experiment: Fms biochemical assay (AlphaScreen or 33P-ATP); conditions: under the test conditions employed; read-out: IC50 toward kinase Fms
T1 construct: purchased Upstate Biotech 14-551
Excerpt: Each sample was at 5% DMSO.

Kdr = Kdr (Homo sapiens, UniProt P35968); experiment: Kdr kinase activity assay; format: biochemical; conditions: under the test conditions employed; read-out: IC50 toward kinase Kdr
Kit = molecular target: T2, Kit (Homo sapiens, UniProt P10721); experiment: c-kit biochemical assay (AlphaScreen or 33P-ATP); conditions: under the test conditions employed; read-out: IC50 toward kinase Kit
T2 construct: P1332.N6 BI PTP KIT M552-K948-X COD; made in house; host or cells: E. coli BL21(DE3)RIL, co-expressed with PTP1B
Summary of the method: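 Kinase activity read by AlphaScreen or 33P-ATP incorporation, with c-kit enzyme at 1 ng per sample. The enzyme was either commercial or a recombinant human kit construct made from a gene-synthesized coding sequence.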

Src = Src (Homo sapiens, UniProt P12931); experiment: Src kinase activity assay; format: biochemical; conditions: under the test conditions employed; read-out: IC50 toward kinase Src
FGFR = FGFR (Homo sapiens, UniProt P11362); experiment: FGFR kinase activity assay; format: biochemical; conditions: under the test conditions employed; read-out: IC50 toward kinase FGFR
Met = Met (Homo sapiens, UniProt P08581); experiment: Met kinase activity assay; format: biochemical; conditions: under the test conditions employed; read-out: IC50 toward kinase Met

Chain of Kdr (P35968 20-1356): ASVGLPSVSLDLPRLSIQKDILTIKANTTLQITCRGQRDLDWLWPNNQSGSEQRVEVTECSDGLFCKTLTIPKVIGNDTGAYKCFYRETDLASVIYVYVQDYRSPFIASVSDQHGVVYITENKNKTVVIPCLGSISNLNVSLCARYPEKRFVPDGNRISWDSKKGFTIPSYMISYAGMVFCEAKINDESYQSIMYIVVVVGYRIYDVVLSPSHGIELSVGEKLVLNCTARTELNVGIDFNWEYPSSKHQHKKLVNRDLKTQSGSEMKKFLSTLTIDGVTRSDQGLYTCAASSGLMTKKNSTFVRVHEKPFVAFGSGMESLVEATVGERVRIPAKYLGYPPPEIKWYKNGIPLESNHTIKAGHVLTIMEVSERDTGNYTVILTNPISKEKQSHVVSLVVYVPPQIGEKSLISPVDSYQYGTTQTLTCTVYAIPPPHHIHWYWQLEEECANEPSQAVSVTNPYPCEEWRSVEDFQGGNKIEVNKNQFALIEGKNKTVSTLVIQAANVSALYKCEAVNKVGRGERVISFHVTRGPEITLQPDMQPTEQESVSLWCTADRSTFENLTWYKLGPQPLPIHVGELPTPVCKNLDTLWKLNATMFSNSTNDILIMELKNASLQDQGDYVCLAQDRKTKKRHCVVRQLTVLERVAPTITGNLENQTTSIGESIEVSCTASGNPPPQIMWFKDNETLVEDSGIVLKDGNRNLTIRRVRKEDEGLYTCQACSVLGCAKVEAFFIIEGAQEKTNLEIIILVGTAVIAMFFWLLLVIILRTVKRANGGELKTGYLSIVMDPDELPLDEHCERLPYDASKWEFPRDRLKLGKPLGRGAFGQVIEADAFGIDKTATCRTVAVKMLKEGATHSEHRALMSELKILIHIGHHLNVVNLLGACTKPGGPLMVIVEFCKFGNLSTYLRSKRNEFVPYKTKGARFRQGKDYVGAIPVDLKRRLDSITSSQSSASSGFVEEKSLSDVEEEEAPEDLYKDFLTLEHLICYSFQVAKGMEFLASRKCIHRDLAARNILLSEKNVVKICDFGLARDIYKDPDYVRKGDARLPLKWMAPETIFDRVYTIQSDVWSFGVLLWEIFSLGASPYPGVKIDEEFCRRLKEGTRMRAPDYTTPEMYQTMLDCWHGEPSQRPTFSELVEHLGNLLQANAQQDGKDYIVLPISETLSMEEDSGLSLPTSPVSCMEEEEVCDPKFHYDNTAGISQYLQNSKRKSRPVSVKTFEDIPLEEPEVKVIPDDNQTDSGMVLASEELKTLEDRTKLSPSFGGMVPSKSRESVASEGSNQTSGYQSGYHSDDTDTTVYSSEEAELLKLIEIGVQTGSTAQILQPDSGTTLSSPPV
T1 sequence (P07333 20-972): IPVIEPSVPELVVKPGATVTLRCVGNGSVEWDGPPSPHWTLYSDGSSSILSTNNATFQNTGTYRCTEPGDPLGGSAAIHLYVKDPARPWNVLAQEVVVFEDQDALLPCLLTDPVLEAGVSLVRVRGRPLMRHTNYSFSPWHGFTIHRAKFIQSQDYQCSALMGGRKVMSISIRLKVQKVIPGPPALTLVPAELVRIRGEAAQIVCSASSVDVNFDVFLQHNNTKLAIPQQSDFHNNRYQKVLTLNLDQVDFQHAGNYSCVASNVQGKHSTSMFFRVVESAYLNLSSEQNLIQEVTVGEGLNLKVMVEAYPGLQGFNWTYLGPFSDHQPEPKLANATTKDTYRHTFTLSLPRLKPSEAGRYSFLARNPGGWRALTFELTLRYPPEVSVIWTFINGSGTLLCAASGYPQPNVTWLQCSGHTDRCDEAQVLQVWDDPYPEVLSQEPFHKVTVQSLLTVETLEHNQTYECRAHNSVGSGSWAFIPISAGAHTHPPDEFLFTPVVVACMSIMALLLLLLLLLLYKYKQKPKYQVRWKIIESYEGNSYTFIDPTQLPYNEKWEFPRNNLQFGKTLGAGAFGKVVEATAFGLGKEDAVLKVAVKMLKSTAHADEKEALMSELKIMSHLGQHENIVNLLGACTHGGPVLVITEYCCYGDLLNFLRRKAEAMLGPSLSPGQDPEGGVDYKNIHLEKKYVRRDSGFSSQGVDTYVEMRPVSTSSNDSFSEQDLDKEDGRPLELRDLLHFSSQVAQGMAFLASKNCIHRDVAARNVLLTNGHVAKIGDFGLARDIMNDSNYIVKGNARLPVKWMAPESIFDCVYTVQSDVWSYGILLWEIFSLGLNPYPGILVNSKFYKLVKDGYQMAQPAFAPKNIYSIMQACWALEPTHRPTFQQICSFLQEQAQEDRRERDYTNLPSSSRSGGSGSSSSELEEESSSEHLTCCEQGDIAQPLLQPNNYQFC
T2 sequence (P10721 552-948): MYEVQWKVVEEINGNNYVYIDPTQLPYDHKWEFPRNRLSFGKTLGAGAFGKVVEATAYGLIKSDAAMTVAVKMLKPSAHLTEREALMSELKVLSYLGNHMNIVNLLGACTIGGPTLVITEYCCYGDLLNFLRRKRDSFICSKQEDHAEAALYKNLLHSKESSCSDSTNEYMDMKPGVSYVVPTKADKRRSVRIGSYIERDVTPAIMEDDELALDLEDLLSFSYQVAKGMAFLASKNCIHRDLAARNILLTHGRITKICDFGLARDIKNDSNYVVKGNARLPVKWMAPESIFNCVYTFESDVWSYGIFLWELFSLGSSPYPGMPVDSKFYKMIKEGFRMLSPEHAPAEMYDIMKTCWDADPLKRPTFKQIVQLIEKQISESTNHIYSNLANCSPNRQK
Chain of Flt1 (P17948 27-1338): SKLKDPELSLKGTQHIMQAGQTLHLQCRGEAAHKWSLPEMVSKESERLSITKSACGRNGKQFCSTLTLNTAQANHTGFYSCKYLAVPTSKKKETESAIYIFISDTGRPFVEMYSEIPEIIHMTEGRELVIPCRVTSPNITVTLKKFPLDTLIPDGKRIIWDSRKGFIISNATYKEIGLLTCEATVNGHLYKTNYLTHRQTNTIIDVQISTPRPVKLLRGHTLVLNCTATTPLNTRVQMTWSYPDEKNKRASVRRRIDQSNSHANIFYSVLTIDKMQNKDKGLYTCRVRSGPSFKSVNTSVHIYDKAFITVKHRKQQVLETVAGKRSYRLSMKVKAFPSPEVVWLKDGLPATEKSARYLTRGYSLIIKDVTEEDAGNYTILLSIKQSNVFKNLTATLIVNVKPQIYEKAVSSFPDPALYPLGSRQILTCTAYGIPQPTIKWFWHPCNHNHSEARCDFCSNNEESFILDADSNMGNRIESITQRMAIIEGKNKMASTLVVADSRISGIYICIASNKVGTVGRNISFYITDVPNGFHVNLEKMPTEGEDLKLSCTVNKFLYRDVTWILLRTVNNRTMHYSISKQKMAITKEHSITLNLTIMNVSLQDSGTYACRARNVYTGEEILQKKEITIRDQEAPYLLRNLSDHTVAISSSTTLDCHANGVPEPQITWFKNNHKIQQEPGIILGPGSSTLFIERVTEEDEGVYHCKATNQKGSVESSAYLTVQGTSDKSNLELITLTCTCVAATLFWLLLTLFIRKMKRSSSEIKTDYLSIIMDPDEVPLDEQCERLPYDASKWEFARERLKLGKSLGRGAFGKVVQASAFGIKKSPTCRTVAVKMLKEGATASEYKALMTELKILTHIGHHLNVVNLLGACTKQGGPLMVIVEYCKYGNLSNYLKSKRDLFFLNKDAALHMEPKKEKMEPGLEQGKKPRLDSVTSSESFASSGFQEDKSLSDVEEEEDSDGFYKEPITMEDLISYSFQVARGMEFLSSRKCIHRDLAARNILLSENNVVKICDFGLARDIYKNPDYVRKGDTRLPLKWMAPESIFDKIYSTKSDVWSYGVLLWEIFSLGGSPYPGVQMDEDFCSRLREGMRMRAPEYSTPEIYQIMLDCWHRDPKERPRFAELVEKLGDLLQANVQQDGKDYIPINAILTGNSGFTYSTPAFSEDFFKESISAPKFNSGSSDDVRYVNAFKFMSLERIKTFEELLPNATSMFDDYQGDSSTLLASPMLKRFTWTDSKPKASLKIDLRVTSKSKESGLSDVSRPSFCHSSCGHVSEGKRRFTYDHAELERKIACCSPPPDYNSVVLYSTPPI
Chain of Jnk1 (P45983 whole entry): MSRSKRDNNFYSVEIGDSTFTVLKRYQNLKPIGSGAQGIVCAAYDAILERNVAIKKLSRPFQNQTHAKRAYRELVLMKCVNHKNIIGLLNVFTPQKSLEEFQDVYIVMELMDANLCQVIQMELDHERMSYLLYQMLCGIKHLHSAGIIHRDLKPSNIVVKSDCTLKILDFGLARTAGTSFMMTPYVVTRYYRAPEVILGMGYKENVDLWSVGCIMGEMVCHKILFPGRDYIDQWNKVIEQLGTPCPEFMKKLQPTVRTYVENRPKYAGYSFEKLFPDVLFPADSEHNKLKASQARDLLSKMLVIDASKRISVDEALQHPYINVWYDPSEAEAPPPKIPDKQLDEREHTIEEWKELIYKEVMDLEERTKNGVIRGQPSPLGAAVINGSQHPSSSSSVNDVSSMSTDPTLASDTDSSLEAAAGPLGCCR
Chain of Src (P12931 whole entry): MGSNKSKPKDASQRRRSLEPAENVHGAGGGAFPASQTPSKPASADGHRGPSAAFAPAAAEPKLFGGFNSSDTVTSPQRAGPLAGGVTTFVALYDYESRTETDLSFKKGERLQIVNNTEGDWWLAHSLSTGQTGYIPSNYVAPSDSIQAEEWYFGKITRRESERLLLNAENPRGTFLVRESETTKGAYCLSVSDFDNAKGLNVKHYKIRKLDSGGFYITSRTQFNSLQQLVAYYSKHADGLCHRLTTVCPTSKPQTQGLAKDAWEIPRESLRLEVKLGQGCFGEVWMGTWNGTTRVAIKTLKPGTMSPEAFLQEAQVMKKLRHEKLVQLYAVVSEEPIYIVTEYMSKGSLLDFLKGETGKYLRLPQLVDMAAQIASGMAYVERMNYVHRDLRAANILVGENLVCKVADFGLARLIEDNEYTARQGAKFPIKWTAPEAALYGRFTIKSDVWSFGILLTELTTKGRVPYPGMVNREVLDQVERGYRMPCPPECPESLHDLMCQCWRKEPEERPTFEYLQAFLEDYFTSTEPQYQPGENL

Row | IC50 (Jnk1) [µM] | IC50 (B-Raf) [µM] | IC50 (B-Raf V600E/T529I) [µM] | IC50 (Flt1) [µM] | IC50 (Fms) [µM] | IC50 (Kdr) [µM] | IC50 (Kit) [µM] | IC50 (Src) [µM] | IC50 (FGFR) [µM] | IC50 (Met) [µM] | SMILES
1 | ≤ 10 | – | – | – | – | – | – | – | – | – | Fc1cc(Cc2c[nH]c3ncccc23)ccc1OCc1ccc(Cl)cc1 [P-1896, 3-[4-(4-Chloro-benzyloxy)-3-fluoro-benzyl]-1H-pyrrolo[2,3-b]pyridine]
2 | ≤ 10 | – | – | – | – | – | – | – | – | – | O=C(c1ccc(OCc2ccc(Cl)cc2)c(F)c1)c1c[nH]c2ncccc12 [P-1897, [4-(4-chloro-benzyloxy)-3-fluoro-phenyl]-(1H-pyrrolo[2,3-b]pyridin-3-yl)-methanone]
3 | – | ≤ 10 | ≤ 10 | ≤ 10 | ≤ 10 | ≤ 10 | ≤ 10 | ≤ 10 | – | – | Cn1cc(-c2cnc3[nH]cc(C(=O)c4c(Cl)ccc(OCC(F)(F)F)c4Cl)c3c2)cn1 [P-2151, [2,6-Dichloro-3-(2,2,2-trifluoro-ethoxy)-phenyl]-[5-(1-methyl-1H-pyrazol-4-yl)-1H-pyrrolo[2,3-b]pyridin-3-yl]-methanone]
4 | – | – | ≤ 10 | ≤ 10 | ≤ 10 | ≤ 10 | – | – | – | – | COc1cnc2[nH]cc(C(=O)c3c(Cl)ccc(OCC(F)(F)F)c3Cl)c2c1 [P-2154, [2,6-Dichloro-3-(2,2,2-trifluoro-ethoxy)-phenyl]-(5-methoxy-1H-pyrrolo[2,3-b]pyridin-3-yl)-methanone]
5 | – | – | – | – | ≤ 10 | ≤ 10 | ≤ 10 | – | ≤ 10 | ≤ 10 | COCCOc1ccc(F)c(Cc2c[nH]c3ncc(Cl)cc23)c1Cl [P-2157, 5-Chloro-3-[2-chloro-6-fluoro-3-(2-methoxy-ethoxy)-benzyl]-1H-pyrrolo[2,3-b]pyridine]
